{"source": "patent US20250304537A1", "about": "(Repare Therapeutics Inc., priority 2022, published 2025)", "tested_on": "PKMYT1 (CDK1 pThr14) in FUOV1 cells", "experiment": "PKMYT1 cell-based activity assay, CDK1 pThr14 AlphaLISA in FUOV1 cells", "conditions": "2 h, read-out: FUOV-1 CDK1 pThr14 IC50", "method_in_brief": "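FUOV1 cells were treated with PKMYT1 inhibitor for 2 h at 37 °C, then lysed. CDK1 pThr14 was measured by AlphaLISA, pairing an anti-pThr14 antibody with an anti-total CDK1 antibody (5 nM each). Signal read at 680/615 nm and used to derive IC50.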", "note": "Where two headings read alike, the source gives them in different places.", "data": [{"smiles": "Cc1ccc2[nH]ncc2c1-c1nc(-c2ccc(F)cc2Nc2cncc(C#N)c2)nc(C(N)=O)c1N", "note": "[Compound 673]", "values": [{"measurement": "IC50", "setting": "2 h compound incubation", "result": 1710, "unit": "nM"}]}, {"smiles": "Cc1cc(F)c2[nH]ncc2c1-c1nc(-c2cc(F)cnc2N[C@H]2CC[C@@](C)(O)CC2)nc(C(N)=O)c1N", "note": "[Compound 875]", "values": [{"measurement": "IC50", "setting": "2 hours with compound", "result": 170, "unit": "nM"}]}, {"smiles": "Cc1ccc2[nH]ncc2c1-c1nc(-c2cc(F)ccc2Nc2ncc(Cl)s2)nc(C(N)=O)c1N", "note": "[Compound 510]", "values": [{"measurement": "IC50", "setting": "2 h compound incubation", "result": 871, "unit": "nM"}]}, {"smiles": "Cc1ccc(-c2nc(C(N)=O)c(N)c(-c3c(C)ccc4[nH]ncc34)n2)c(Nc2ncccc2F)n1", "note": "[Compound 911]", "values": [{"measurement": "IC50", "setting": "2 hours with compound", "result": 1, "unit": "nM"}]}, {"smiles": "Cc1cnc(C)c(Nc2cc(F)ccc2-c2nc(C(N)=O)c(N)c(-c3c(C)ccc4[nH]ncc34)n2)n1", "note": "[Compound 719]", "values": [{"measurement": "IC50", "setting": "2 h compound incubation", "result": 55, "unit": "nM"}]}, {"smiles": "COc1cc(-c2nc(C(N)=O)c(N)c(-c3c(C)ccc4[nH]ncc34)n2)ccn1", "note": "[Compound 135]", "values": [{"measurement": "IC50", "setting": "2 h incubation", "result": 1150, "unit": "nM"}]}, {"smiles": "Cc1ccc2[nH]ncc2c1-c1nc(-c2cc(Cl)ncc2NC2CC(F)(F)C2)nc(C(N)=O)c1N", "note": "[Compound 840]", "values": [{"measurement": "IC50", "setting": "2 hours with compound", "result": 54, "unit": "nM"}]}, {"smiles": "NC(=O)c1nc(-c2ccc(F)nc2Nc2ncccc2F)nc(-c2c(F)ccc3[nH]ncc23)c1N", "note": "[Compound 971]", "values": [{"measurement": "IC50", "setting": "2 hours with compound", "result": 21, "unit": "nM"}]}, {"smiles": "Cc1cc(Nc2cc(F)ccc2-c2nc(C(N)=O)c(N)c(-c3c(C)ccc4[nH]ncc34)n2)ccn1", "note": "[Compound 564]", "values": [{"measurement": "IC50", "setting": "2 h compound incubation", "result": 15, "unit": "nM"}]}, {"smiles": "CC(=O)N1CCN(c2nccc(-c3cc(-c4c(C)ccc5[nH]ncc45)c(N)c(C(N)=O)n3)n2)CC1", "note": "[Compound 215]", "values": [{"measurement": "IC50", "setting": "2 h incubation", "result": 399, "unit": "nM"}]}, {"smiles": "Cc1ccc2[nH]ncc2c1-c1nc(-c2cccnc2NC2CCCC2)nc(C(N)=O)c1N", "note": "[Compound 681]", "values": [{"measurement": "IC50", "setting": "2 h compound incubation", "result": 11, "unit": "nM"}]}, {"smiles": "Cc1cc(F)c2[nH]ncc2c1-c1nc(-c2ccc(C(F)F)nc2Nc2ncccn2)nc(C(N)=O)c1N", "note": "[Compound 907]", "values": [{"measurement": "IC50", "setting": "2 hours with compound", "result": 214, "unit": "nM"}]}, {"smiles": "Cc1ccc2[nH]ncc2c1-c1nc(-c2cc(F)ccc2Nc2ccnn2C)nc(C(N)=O)c1N", "note": "[Compound 522]", "values": [{"measurement": "IC50", "setting": "2 h compound incubation", "result": 101, "unit": "nM"}]}, {"smiles": "Cc1ccc2[nH]ncc2c1-c1nc(-c2ccc(F)cc2Nc2cccnn2)nc(C(N)=O)c1N", "note": "[Compound 515]", "values": [{"measurement": "IC50", "setting": "2 h compound incubation", "result": 11, "unit": "nM"}]}, {"smiles": "NC(=O)c1nc(-c2cccnc2NCC(F)(F)F)nc(-c2c(Cl)ccc3[nH]ncc23)c1N", "note": "[Compound 912]", "values": [{"measurement": "IC50", "setting": "2 hours with compound", "result": 178, "unit": "nM"}]}, {"smiles": "Cc1ccc2[nH]ncc2c1-c1nc(-c2cc(F)c(F)cc2NCC2(C)COC2)nc(C(N)=O)c1N", "note": "[Compound 503]", "values": [{"measurement": "IC50", "setting": "2 h compound incubation", "result": 23, "unit": "nM"}]}, {"smiles": "CO[C@H]1C[C@@H](Nc2ncccc2-c2nc(C(N)=O)c(N)c(-c3c(C)ccc4[nH]ncc34)n2)C1", "note": "[Compound 548]", "values": [{"measurement": "IC50", "setting": "2 h compound incubation", "result": 227, "unit": "nM"}]}, {"smiles": "Cc1ccc2[nH]ncc2c1-c1nc(-c2cc(F)cnc2N[C@H]2CCOC2)nc(C(N)=O)c1N", "note": "[Compound 711]", "values": [{"measurement": "IC50", "setting": "2 h compound incubation", "result": 14, "unit": "nM"}]}, {"smiles": "Cc1ccc(Cl)nc1Nc1ncccc1-c1nc(C(N)=O)c(N)c(-c2c(C)ccc3[nH]ncc23)n1", "note": "[Compound 742]", "values": [{"measurement": "IC50", "setting": "2 h compound incubation", "result": 5, "unit": "nM"}]}, {"smiles": "Cc1ccc(O)c(C)c1-c1nc(-c2cccnc2Nc2nccnc2C)nc(C(N)=O)c1N", "note": "[Compound 727, 5-amino-6-(3-hydroxy-2,6-dimethylphenyl)-2-(2-((3-methylpyrazin-2-yl)amino)pyridin-3-yl)pyrimidine-4-carboxamide]", "values": [{"measurement": "IC50", "setting": "2 h compound incubation", "result": 3, "unit": "nM"}]}, {"smiles": "COc1ccc(-c2nc(C(N)=O)c(N)c(-c3c(C)ccc4[nH]ncc34)n2)c(Nc2ncccc2C)n1", "note": "[Compound 709]", "values": [{"measurement": "IC50", "setting": "2 h compound incubation", "result": 18, "unit": "nM"}]}, {"smiles": "Cc1ccc2[nH]ncc2c1-c1nc(-c2ccc(F)cc2Nc2cncnc2C)nc(C(N)=O)c1N", "note": "[Compound 695]", "values": [{"measurement": "IC50", "setting": "2 h compound incubation", "result": 41, "unit": "nM"}]}, {"smiles": "Cc1ccc(O)c(C)c1-c1nc(-c2cc(F)cnc2NCC(F)F)nc(C(N)=O)c1N", "note": "[Compound 700, 5-amino-2-(2-((2,2-difluoroethyl)amino)-5-fluoropyridin-3-yl)-6-(3-hydroxy-2,6-dimethylphenyl)pyrimidine-4-carboxamide]", "values": [{"measurement": "IC50", "setting": "2 h compound incubation", "result": 9, "unit": "nM"}]}, {"smiles": "Cc1ccc2[nH]ncc2c1-c1nc(-c2ccc(F)cc2Nc2ncccc2F)nc(C(N)=O)c1N", "note": "[Compound 527]", "values": [{"measurement": "IC50", "setting": "2 h compound incubation", "result": 11, "unit": "nM"}]}, {"smiles": "Cc1ccc2[nH]ncc2c1-c1nc(-c2ccc(F)nc2Nc2ncccn2)nc(C(N)=O)c1N", "note": "[Compound 758]", "values": [{"measurement": "IC50", "setting": "2 h compound incubation", "result": 83, "unit": "nM"}]}, {"smiles": "Cc1cc(F)c2[nH]ncc2c1-c1nc(-c2ccc(F)nc2Nc2ncccc2F)nc(C(N)=O)c1N", "note": "[Compound 864]", "values": [{"measurement": "IC50", "setting": "2 hours with compound", "result": 9, "unit": "nM"}]}, {"smiles": "Cc1ccc2[nH]ncc2c1-c1nc(-c2ccc(Cl)nc2NC2CCOCC2)nc(C(N)=O)c1N", "note": "[Compound 803]", "values": [{"measurement": "IC50", "setting": "2 hours with compound", "result": 74, "unit": "nM"}]}, {"smiles": "Cc1ccc2[nH]ncc2c1-c1nc(-c2cc(F)cnc2N[C@@H]2CC[C@@H](O)C2)nc(C(N)=O)c1N", "note": "[Compound 851]", "values": [{"measurement": "IC50", "setting": "2 hours with compound", "result": 44, "unit": "nM"}]}, {"smiles": "Cc1ccnc(Nc2c(F)cccc2-c2nc(C(N)=O)c(N)c(-c3c(C)ccc4[nH]ncc34)n2)n1", "note": "[Compound 776, 5-amino-2-(3-fluoro-2-((4-methylpyrimidin-2-yl)amino)phenyl)-6-(5-methyl-1H-indazol-4-yl)pyrimidine-4-carboxamide]", "values": [{"measurement": "IC50", "setting": "2 h compound incubation", "result": 1130, "unit": "nM"}]}, {"smiles": "Cc1ccc2[nH]ncc2c1-c1nc(-c2cccnc2Nc2ncccc2C(F)F)nc(C(N)=O)c1N", "note": "[Compound 720]", "values": [{"measurement": "IC50", "setting": "2 h compound incubation", "result": 7, "unit": "nM"}]}, {"smiles": "NC(=O)c1nc(-c2ccc(C(F)F)nc2Nc2ncccc2F)nc(-c2c(F)ccc3[nH]ncc23)c1N", "note": "[Compound 970]", "values": [{"measurement": "IC50", "setting": "2 hours with compound", "result": 40, "unit": "nM"}]}, {"smiles": "Cc1ccc(F)c(Nc2ncc(F)cc2-c2nc(C(N)=O)c(N)c(-c3c(C)ccc(O)c3C)n2)n1", "note": "[Compound 715, 5-amino-2-[5-fluoro-2-[(3-fluoro-6-methyl-2-pyridyl)amino]-3-pyridyl]-6-(3-hydroxy-2,6-dimethyl-phenyl)pyrimidine-4-carboxamide]", "values": [{"measurement": "IC50", "setting": "2 h compound incubation", "result": 9, "unit": "nM"}]}, {"smiles": "Cc1ccc2[nH]ncc2c1-c1nc(-c2cc(F)cnc2NC2CCOCC2)nc(C(N)=O)c1N", "note": "[Compound 686]", "values": [{"measurement": "IC50", "setting": "2 h compound incubation", "result": 10, "unit": "nM"}]}, {"smiles": "Cc1ccc(-c2nc(C(N)=O)c(N)c(-c3c(C)ccc4[nH]ncc34)n2)c(Nc2ncccn2)c1", "note": "[Compound 653]", "values": [{"measurement": "IC50", "setting": "2 h compound incubation", "result": 61, "unit": "nM"}]}, {"smiles": "[2H]C([2H])([2H])c1ccc2[nH]ncc2c1-c1nc(-c2ccc(C3CC3)nc2Nc2nc(C)ncc2F)nc(C(N)=O)c1N", "note": "[Compound 977]", "values": [{"measurement": "IC50", "setting": "2 hours with compound", "result": 203, "unit": "nM"}]}, {"smiles": "Cc1ccc2[nH]ncc2c1-c1nc(-c2cc(F)ccc2Nc2cnccn2)nc(C(N)=O)c1N", "note": "[Compound 490]", "values": [{"measurement": "IC50", "setting": "2 h compound incubation", "result": 51, "unit": "nM"}]}, {"smiles": "Cc1nc(F)cc(Nc2cc(F)ccc2-c2nc(C(N)=O)c(N)c(-c3c(C)ccc4[nH]ncc34)n2)n1", "note": "[Compound 568]", "values": [{"measurement": "IC50", "setting": "2 h compound incubation", "result": 15, "unit": "nM"}]}, {"smiles": "Cc1ccc(F)nc1Nc1ncccc1-c1nc(C(N)=O)c(N)c(-c2c(C)ccc3[nH]ncc23)n1", "note": "[Compound 724]", "values": [{"measurement": "IC50", "setting": "2 h compound incubation", "result": 13, "unit": "nM"}]}, {"smiles": "Cc1ccc2[nH]ncc2c1-c1nc(-c2ccc(F)cc2Nc2ncncc2C#N)nc(C(N)=O)c1N", "note": "[Compound 655]", "values": [{"measurement": "IC50", "setting": "2 h compound incubation", "result": 4, "unit": "nM"}]}, {"smiles": "Cc1ccc(C#N)nc1Nc1ncccc1-c1nc(C(N)=O)c(N)c(-c2c(C)ccc3[nH]ncc23)n1", "note": "[Compound 740]", "values": [{"measurement": "IC50", "setting": "2 h compound incubation", "result": 7, "unit": "nM"}]}, {"smiles": "Cc1cncc(Nc2nc(C)ccc2-c2nc(C(N)=O)c(N)c(-c3c(C)ccc4[nH]ncc34)n2)n1", "note": "[Compound 688]", "values": [{"measurement": "IC50", "setting": "2 h compound incubation", "result": 180, "unit": "nM"}]}, {"smiles": "Cc1c(F)cc2[nH]ncc2c1-c1nc(-c2cccnc2NCC(F)(F)F)nc(C(N)=O)c1N", "note": "[Compound 849]", "values": [{"measurement": "IC50", "setting": "2 hours with compound", "result": 174, "unit": "nM"}]}, {"smiles": "Cc1ccc2[nH]ncc2c1-c1nc(-c2cccnc2Nc2nc(F)ccc2F)nc(C(N)=O)c1Cl", "note": "[Compound 314, 5-chloro-2-[2-[(3,6-difluoro-2-pyridyl)amino]-3-pyridyl]-6-(5-methyl-1H-indazol-4-yl)pyrimidine-4-carboxamide]", "values": [{"measurement": "IC50", "setting": "2 h incubation", "result": 1620, "unit": "nM"}]}, {"smiles": "Cc1ccc2[nH]ncc2c1-c1nc(-c2ccc(F)cc2Nc2cc(C(C)(C)O)ccn2)nc(C(N)=O)c1N", "note": "[Compound 633]", "values": [{"measurement": "IC50", "setting": "2 h compound incubation", "result": 998, "unit": "nM"}]}, {"smiles": "Cc1ccc2[nH]ncc2c1-c1nc(-c2cccnc2N[C@H]2CCOC[C@H]2F)nc(C(N)=O)c1N", "note": "[Compound 644]", "values": [{"measurement": "IC50", "setting": "2 h compound incubation", "result": 10, "unit": "nM"}]}, {"smiles": "Cc1ccc2[nH]ncc2c1-c1nc(-c2cc(F)cnc2NC2CC3(COC3)C2)nc(C(N)=O)c1N", "note": "[Compound 713]", "values": [{"measurement": "IC50", "setting": "2 h compound incubation", "result": "> 10000", "unit": "nM"}]}]}
